Experimental findings from patent US20250059174A1, “Pharmaceutical Compounds and Compositions as C-Kit Kinase Inhibitors” (Enanta Pharmaceuticals, Inc., priority 2023, published 2025) are described below.

A word on the IC50: it is the midpoint of a concentration-inhibition curve. As usually defined, the EC50 is the concentration needed to bring the measured effect to its halfway point. A low value points to a more potent agent.

In experiment [1] the target is Recombinant human c-KIT kinase (Homo sapiens (Human), UniProt P10721). The experiment can be described thus: c-KIT kinase chemiluminescence assay (ADP-Glo). The class given is biochemical. The conditions noted are these: ATP 50 μM. A digest of the protocol: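 ADP formed by c-KIT on polyEY over 2 h at RT (after 30 min enzyme preincubation; Tris pH 7.5, MgCl2, BSA, DTT buffer) was detected by ADP-Glo luminescence. IC50 and Hill slope were fitted to control-normalized activity across compound concentrations.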
(In general: ADP-Glo first removes unused ATP, then detects ADP through luciferase.)

In another experiment the test system is M-07e cells. Nature of the experiment: M-07e cellular assay (SCF-mediated cell proliferation). In kind it is cell-based. The conditions noted are these: Homo sapiens, 72 hours, CellTiter Glo. A digest of the protocol: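 EC50 values reflect inhibition of SCF-driven proliferation, with SCF at EC90 and a 72 h compound exposure, measured as CellTiter Glo luminescence. Growth is scaled between no-SCF (0%) and untreated (100%) wells.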
(In general: Cellular ATP, detected with luciferase, serves as a proxy for viable cell number.)

A value given as a limit tells only on which side of the number the result lay.

Recombinant human c-KIT kinase, sequence (P10721 26-976): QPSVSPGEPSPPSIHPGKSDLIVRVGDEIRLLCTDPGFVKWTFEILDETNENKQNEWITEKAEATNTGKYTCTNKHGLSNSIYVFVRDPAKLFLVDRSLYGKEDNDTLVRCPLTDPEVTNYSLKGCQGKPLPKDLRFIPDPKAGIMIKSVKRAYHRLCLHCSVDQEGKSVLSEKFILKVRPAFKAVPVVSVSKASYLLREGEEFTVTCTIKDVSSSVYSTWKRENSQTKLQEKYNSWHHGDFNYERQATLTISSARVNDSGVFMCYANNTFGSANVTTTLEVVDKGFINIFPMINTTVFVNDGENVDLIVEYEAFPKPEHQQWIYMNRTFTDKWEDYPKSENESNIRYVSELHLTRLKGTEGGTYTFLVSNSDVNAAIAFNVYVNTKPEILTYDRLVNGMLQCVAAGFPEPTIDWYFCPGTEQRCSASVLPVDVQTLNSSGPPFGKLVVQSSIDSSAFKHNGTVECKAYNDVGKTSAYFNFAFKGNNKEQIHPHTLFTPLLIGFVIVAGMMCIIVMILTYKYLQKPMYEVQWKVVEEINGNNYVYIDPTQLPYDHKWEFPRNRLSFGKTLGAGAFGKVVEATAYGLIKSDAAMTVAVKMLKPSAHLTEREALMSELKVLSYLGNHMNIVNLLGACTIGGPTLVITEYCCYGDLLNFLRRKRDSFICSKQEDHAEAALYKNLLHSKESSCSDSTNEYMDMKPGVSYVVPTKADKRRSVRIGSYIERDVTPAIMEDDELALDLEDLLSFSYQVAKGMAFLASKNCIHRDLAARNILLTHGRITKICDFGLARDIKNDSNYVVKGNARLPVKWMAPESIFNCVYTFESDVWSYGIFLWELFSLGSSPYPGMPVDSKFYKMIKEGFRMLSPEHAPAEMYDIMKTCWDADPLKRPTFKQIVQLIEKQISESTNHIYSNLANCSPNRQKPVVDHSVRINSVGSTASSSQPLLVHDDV

For the compound `CNS(=O)(=O)c1cccc(-c2ncc(C(=O)Nc3cc(-c4noc([C@H]5C[C@@H]5F)n4)ccc3C)o2)c1` [Example 308-30], the IC50 in experiment [1] lay within 100 to 1000 nM. In the experiment with M-07e cells, this compound gave an EC50 of 100 to 1000 nM.
In the case of `Cc1ccc(-c2noc([C@H]3C[C@@H]3F)n2)cc1NC(=O)c1cnc(-c2ccc3cn(C)nc3c2)o1` [Example 308-31], in experiment [1], the IC50 lay in the range of 100 to 1000 nM. This compound also gave a concentration giving a half-maximal response (EC50) in the experiment with M-07e cells of 100 to 1000 nM.
For `Cc1ccc(-c2noc([C@H]3C[C@@H]3F)n2)cc1NC(=O)c1cnc(-c2ccc3cnn(C)c3c2)o1` [Example 308-32], in experiment [1], the half-maximal inhibitory concentration (IC50) was less than 100 nM. Besides, in the experiment with M-07e cells, the EC50 fell in the range of 100 to 1000 nM.
In the same order, the values of `Cc1ccc(-c2noc([C@H]3C[C@@H]3F)n2)cc1NC(=O)c1cnc(-c2cccc3c2NC(=O)C3)o1` [Example 308-33] are greater than 1000 nM and greater than 1000 nM.
As for `Cc1ccc(-c2noc([C@H]3C[C@@H]3F)n2)cc1NC(=O)c1cnc(-c2cccc3[nH]c(=O)[nH]c23)o1` [Example 308-34], in experiment [1], the IC50 fell in the range of 100 to 1000 nM. For the same compound, in the experiment with M-07e cells, the EC50 is greater than 1000 nM.
In the same order, the values of `Cc1ccc(-c2noc([C@H]3C[C@@H]3F)n2)cc1NC(=O)c1cnc(-c2ccc3c(c2)oc(=O)n3C)o1` [Example 308-35] are 100 to 1000 nM and 100 to 1000 nM.
For `Cc1ccc(-c2noc([C@H]3C[C@@H]3F)n2)cc1NC(=O)c1cnc(-c2ccc3c(c2)NCCO3)o1` [Example 308-36], in that order: less than 100 nM and less than 100 nM.
For `Cc1ccc(-c2noc([C@H]3C[C@@H]3F)n2)cc1NC(=O)c1cnc(-c2ccc3c(c2)C(C)(C)C(=O)N3)o1` [Example 308-37], in that order: 100 to 1000 nM and 100 to 1000 nM.
For the compound `Cc1ccc(-c2noc([C@H]3C[C@@H]3F)n2)cc1NC(=O)c1cnc(-c2cccc3nc[nH]c23)o1` [Example 308-38], the half-maximal inhibitory concentration (IC50) in experiment [1] was 100 to 1000 nM. In the experiment with M-07e cells, this compound showed an EC50 of 100 to 1000 nM.
Consider `Cc1ccc(-c2noc([C@H]3C[C@@H]3F)n2)cc1NC(=O)c1cnc(-c2ccc3nc[nH]c3c2)o1` [Example 308-39], for which the half-inhibitory concentration (IC50) in experiment [1] fell in the range of 100 to 1000 nM. In the experiment with M-07e cells, this compound returned an EC50 of 100 to 1000 nM.
Regarding `Cc1nc2cc(-c3ncc(C(=O)Nc4cc(-c5noc([C@H]6C[C@@H]6F)n5)ccc4C)o3)ccc2[nH]1` [Example 308-40], the half-inhibitory concentration (IC50) in experiment [1] was less than 100 nM. The compound further came in with a concentration giving a half-maximal response (EC50) in the experiment with M-07e cells of less than 100 nM.
Regarding `Cc1ccc(-c2noc([C@H]3C[C@@H]3F)n2)cc1NC(=O)c1cnc(-c2cccc3cc[nH]c23)o1` [Example 308-41], the IC50 in experiment [1] lay within 100 to 1000 nM. The EC50 in the experiment on M-07e cells is greater than 1000 nM.
For `Cc1ccc(-c2noc([C@H]3C[C@@H]3F)n2)cc1NC(=O)c1cnc(-c2ccc(F)c3[nH]ccc23)o1` [Example 308-42], in that order: 100 to 1000 nM and 100 to 1000 nM.
In the case of `Cc1ccc(-c2noc([C@H]3C[C@@H]3F)n2)cc1NC(=O)c1cnc(-c2cccc3[nH]ncc23)o1` [Example 308-43], the IC50 in experiment [1] was less than 100 nM. For the same compound, the EC50 in the experiment with M-07e cells was in the range of 100 to 1000 nM.
With `Cc1ccc(-c2noc([C@H]3C[C@@H]3F)n2)cc1NC(=O)c1cnc(-c2ccc(F)c3[nH]ncc23)o1` [Example 308-44], the IC50 in experiment [1] fell in the range of 100 to 1000 nM. In the experiment on M-07e cells, this compound registered a concentration giving a half-maximal response (EC50) of 100 to 1000 nM.
Regarding `Cc1ccc(-c2noc([C@H]3C[C@@H]3F)n2)cc1NC(=O)c1cnc(-c2ccc3nnn(C)c3c2)o1` [Example 308-46], in experiment [1], the IC50 fell in the range of 100 to 1000 nM. The same compound yielded a concentration giving a half-maximal response (EC50) with M-07e cells of 100 to 1000 nM.
In the case of `Cc1ccc(-c2noc([C@H]3C[C@@H]3F)n2)cc1NC(=O)c1cnc(-c2ccc(NC(N)=O)cc2)o1` [Example 308-47], in experiment [1], the IC50 lay in the range of 100 to 1000 nM. Also, in the experiment on M-07e cells, the EC50 was in the range of 100 to 1000 nM.
`COC(=O)Nc1ccc(-c2ncc(C(=O)Nc3cc(-c4noc([C@H]5C[C@@H]5F)n4)ccc3C)o2)cc1` [Example 308-48]: the 50% inhibitory concentration (IC50) in experiment [1] was 100 to 1000 nM. The compound further showed an EC50 in the experiment with M-07e cells of 100 to 1000 nM.
Regarding `Cc1ccc(-c2noc([C@H]3C[C@@H]3F)n2)cc1NC(=O)c1cnc(-c2ccc3c(c2)NC(=O)CO3)o1` [Example 308-52], in experiment [1], the IC50 was 100 to 1000 nM. In the experiment with M-07e cells, the concentration for a half-maximal effect (EC50) is 100 to 1000 nM.
